# Measurements taken from patent US20260250322A1, “NEW PEPTIDES AS SELECTIVE IL-23 RECEPTOR INHIBITORS” (SANOFI, priority 2023, published 2026).
# Bridge positions count the residues as written; N and C are the ends. Square brackets hold non-standard residues; d marks the D form. Peptide text beside a SMILES is read from it. Trp(1-Me) = Cn1cc(C[C@H](N)C(=O)O)c2ccccc21; dAla(4-thiazolyl) = N[C@H](Cc1cscn1)C(=O)O; 1Nal = N[C@@H](Cc1cccc2ccccc12)C(=O)O; 2Nal = N[C@@H](Cc1ccc2ccccc2c1)C(=O)O; Cit = NC(=O)NCCC[C@H](N)C(=O)O; αMeL = CC(C)C[C@](C)(N)C(=O)O; Thp = NC1(C(=O)O)CCOCC1; Aib = CC(C)(N)C(=O)O
# Assays:
# human IL-23R = molecular target: T1, human IL-23R (Homo sapiens, UniProt Q5VWK5); assay: Human ELISA IL-23/IL-23R binding inhibition; settings: human IL-23 coated, recombinant human IL-23R-Fc chimera
# T1 sequence (Q5VWK5 24-355 limits assumed): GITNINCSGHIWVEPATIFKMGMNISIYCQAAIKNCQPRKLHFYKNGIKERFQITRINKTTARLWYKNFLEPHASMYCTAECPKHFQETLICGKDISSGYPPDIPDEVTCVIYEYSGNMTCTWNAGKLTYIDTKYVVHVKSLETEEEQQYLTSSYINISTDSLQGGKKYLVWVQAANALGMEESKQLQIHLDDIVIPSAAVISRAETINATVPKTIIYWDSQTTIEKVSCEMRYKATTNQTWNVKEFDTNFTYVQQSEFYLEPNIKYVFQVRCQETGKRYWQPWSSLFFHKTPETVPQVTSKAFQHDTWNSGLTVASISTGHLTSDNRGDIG
# Description: Antagonism of peptide compounds for human interleukin-23 receptor inhibitors, was determined by an ELISA assay.
# A 384-well plate was coated with 50 μl/well of human IL-23 at a final concentration of 1 μg/ml and incubated overnight at 4° C. The wells were washed 3 times with 80 μl wash buffer and blocked with 80 μl blocking buffer for 60 minutes at room temperature and washed again. 20 μl of serially diluted test peptides was added to each well and subsequently 20 μl of recombinant human IL-23R-Fc chimera at final concentration of 0.1 μg/ml. The plate was incubated for 60 minutes at room temperature. After the wells were washed, bound IL-23R-Fc was detected with goat anti-hu-lgG1-HRP antibody. Signals were visualized with QuantaBlu Fluorogenic Peroxidase Substrate.
# [1] = tested on: IL-23 induced STAT3 signaling; assay: Inhibition of IL-23 induced STAT3 signaling in HEK-Blue IL-23 cells (SEAP reporter); format: cell-based; settings: human IL-23 0.25 ng/ml, read-out: Inhibition of IL-23 induced pSTAT3 (IC50 nM)
# Source text: HEK-Blue™ IL-23 cells (Invivogen) are designed for the detection of bioactive human (hIL-23) and murine IL-23 (mIL-23) by monitoring the activation of the STAT3 pathway. Binding of IL-23 to its receptor on the surface of HEK-Blue™ IL-23 cells triggers a signaling cascade leading to the activation of STAT3 and the subsequent production of secreted embryonic alkaline phosphatase (SEAP). This can be readily assessed using QUANTI-Blue™ Solution, a SEAP detection reagent.
# HEK-Blue™ IL-23 cells were cultured as described by Invivogen.
# On the first day of assay 10 μL of the HEK-Blue IL-23 cell suspension (final concentration: 10,000 cells/well) and 10 μl of serially diluted compound solutions were dispensed into a 384-well assay plate. After pre-incubation of the reaction mixtures at 37° C./5% CO2/95% humidity for 60 minutes, 10 μl of the humanIL-23 cytokine (final concentration: 0.25 ng/ml) was added to each well for the STAT3 signaling activation. The plate was incubated overnight at 37° C./5% CO2/95% humidity.
# On the second day 20 μl per well of Quanti-Blue detection solution (prepared according to the manufacture instruction) was dispensed into a new 384-well plate and followed by the transfer of 5 μl supernatant of the overnight incubated cell/sample mixtures. After incubation of 45 min at room temperature signals were measured with PHERAstar (BMG) at OD 620-655 nm.
# Dose response data were fitted with XLfit.
IC50 (human IL-23R),IC50 [1],SMILES
9.61 nM,3830 nM,COc1ccc(C[C@@H]2NC(=O)[C@H](CCCNC(=N)N)NC(=O)[C@H](CCC(N)=O)NC(=O)[C@H](Cc3cn(C)c4ccccc34)NC(=O)[C@H]([C@@H](C)O)NC(=O)[C@H](CC(N)=O)NC(=O)[C@H](NC(C)=O)CCCCNC(=O)C[C@@H](C(=O)N[C@@H](CC(N)=O)C(=O)N[C@@H](CC(N)=O)C(N)=O)NC(=O)[C@@H](Cc3cscn3)NC(=O)[C@H](Cc3ccc4ccccc4c3)NC2=O)cc1 [compound 25] (Ac-[dK]NT[Trp(1-Me)]QRY(Me)[2Nal][dAla(4-thiazolyl)]DNN-NH2; lactam 1-10)
0.69 nM,234 nM,COc1ccc(C[C@@H]2NC(=O)[C@H](C)NC(=O)[C@H](CCC(N)=O)NC(=O)[C@H](Cc3c[nH]c4ccccc34)NC(=O)[C@H]([C@@H](C)O)NC(=O)[C@H](CC(N)=O)NC(=O)[C@H](NC(C)=O)CCCCNC(=O)C[C@@H](C(=O)N[C@@H](CC(N)=O)C(=O)N[C@@H](CC(N)=O)C(N)=O)NC(=O)C(C)(C)NC(=O)[C@H](Cc3ccc4ccccc4c3)NC2=O)cc1 [compound 2] (Ac-[dK]NTWQAY(Me)[2Nal][Aib]DNN-NH2; lactam 1-10)
3.6 nM,1440 nM,COc1ccc(C[C@@H]2NC(=O)[C@H](CCCNC(=N)N)NC(=O)[C@H](CCC(N)=O)NC(=O)[C@H](Cc3cn(C)c4ccccc34)NC(=O)[C@H]([C@@H](C)O)NC(=O)[C@H](CC(N)=O)NC(=O)[C@H](NC(C)=O)CCCCNC(=O)C[C@@H](C(=O)N[C@@H](CC(N)=O)C(=O)N[C@@H](CC(N)=O)C(N)=O)NC(=O)[C@H](CCCCNC(C)=O)NC(=O)[C@H](Cc3ccc4ccccc4c3)NC2=O)cc1 [compound 10] (Ac-[dK]NT[Trp(1-Me)]QRY(Me)[2Nal]K(Ac)DNN-NH2; lactam 1-10)
5.63 nM,2720 nM,COc1ccc(C[C@@H]2NC(=O)[C@H](CCCNC(=N)N)NC(=O)[C@H](CCC(N)=O)NC(=O)[C@H](Cc3c[nH]c4ccccc34)NC(=O)[C@H]([C@@H](C)O)NC(=O)[C@H](CC(N)=O)NC(=O)[C@H](NC(C)=O)CCCCNC(=O)C[C@@H](C(=O)N[C@@H](CC(N)=O)C(=O)N[C@@H](CC(N)=O)C(N)=O)NC(=O)[C@H](CCCNC(N)=O)NC(=O)[C@H](Cc3ccc4ccccc4c3)NC2=O)cc1 [compound 29] (Ac-[dK]NTWQRY(Me)[2Nal][Cit]DNN-NH2; lactam 1-10)
2.68 nM,320 nM,COc1ccc(C[C@@H]2NC(=O)C(C)(C)NC(=O)[C@H](CCC(N)=O)NC(=O)[C@H](Cc3c[nH]c4ccccc34)NC(=O)[C@H]([C@@H](C)O)NC(=O)[C@H](CC(N)=O)NC(=O)[C@H](NC(C)=O)CCCCNC(=O)C[C@@H](C(=O)N[C@@H](CC(N)=O)C(=O)N[C@@H](CC(N)=O)C(N)=O)NC(=O)C(C)(C)NC(=O)[C@H](Cc3ccc4ccccc4c3)NC2=O)cc1 [compound 32] (Ac-[dK]NTWQ[Aib]Y(Me)[2Nal][Aib]DNN-NH2; lactam 1-10)
0.63 nM,334 nM,COc1ccc(C[C@@H]2NC(=O)[C@H](CC(C)C)NC(=O)[C@H](CCC(N)=O)NC(=O)[C@H](Cc3c[nH]c4ccccc34)NC(=O)[C@H]([C@@H](C)O)NC(=O)[C@H](CC(N)=O)NC(=O)[C@H](NC(C)=O)CCCCNC(=O)C[C@@H](C(=O)N[C@@H](CC(N)=O)C(=O)N[C@@H](CC(N)=O)C(N)=O)NC(=O)C(C)(C)NC(=O)[C@H](Cc3ccc4ccccc4c3)NC2=O)cc1 [compound 1] (Ac-[dK]NTWQLY(Me)[2Nal][Aib]DNN-NH2; lactam 1-10)
8.27 nM,128 nM,COc1ccc(C[C@@H]2NC(=O)[C@H](C(C)C)NC(=O)[C@H](CCC(N)=O)NC(=O)[C@H](Cc3c[nH]c4ccccc34)NC(=O)[C@H]([C@@H](C)O)NC(=O)[C@H](CC(N)=O)NC(=O)[C@H](NC(C)=O)CCCCNC(=O)C[C@@H](C(=O)N[C@@H](CC(N)=O)C(=O)N[C@@H](CC(N)=O)C(N)=O)NC(=O)C(C)(C)NC(=O)[C@H](Cc3ccc4ccccc4c3)NC2=O)cc1 [compound 31] (Ac-[dK]NTWQVY(Me)[2Nal][Aib]DNN-NH2; lactam 1-10)
1.04 nM,426 nM,COc1ccc(C[C@@H]2NC(=O)[C@H](CCCNC(=N)N)NC(=O)[C@H](CCC(N)=O)NC(=O)[C@H](Cc3c[nH]c4ccccc34)NC(=O)[C@H]([C@@H](C)O)NC(=O)[C@H](CC(N)=O)NC(=O)[C@H](NC(C)=O)CCCCNC(=O)C[C@@H](C(=O)N[C@@H](CC(N)=O)C(=O)N[C@@H](CC(N)=O)C(N)=O)NC(=O)C(C)(C)NC(=O)[C@H](Cc3ccc4ccccc4c3)NC2=O)cc1 [compound 15] (Ac-[dK]NTWQRY(Me)[2Nal][Aib]DNN-NH2; lactam 1-10)
1.47 nM,221 nM,COc1ccc(C[C@@H]2NC(=O)[C@H](CCCNC(=N)N)NC(=O)[C@H](CCC(N)=O)NC(=O)[C@H](Cc3c[nH]c4ccccc34)NC(=O)[C@H]([C@@H](C)O)NC(=O)[C@H](CC(N)=O)NC(=O)[C@@H](NC(C)=O)CCCCNC(=O)C[C@@H](C(=O)N[C@@H](CC(N)=O)C(=O)N[C@@H](CC(N)=O)C(N)=O)NC(=O)C3(CCOCC3)NC(=O)[C@H](Cc3ccc4ccccc4c3)NC2=O)cc1 [compound 41] (Ac-KNTWQRY(Me)[2Nal][Thp]DNN-NH2; lactam 1-10)
15.9 nM,10000 nM,COc1ccc(C[C@@H]2NC(=O)[C@H](C(C)C)NC(=O)[C@H](CCC(N)=O)NC(=O)[C@H](Cc3c[nH]c4ccccc34)NC(=O)[C@H]([C@@H](C)O)NC(=O)[C@H](CC(N)=O)NC(=O)[C@H](NC(C)=O)CCCCNC(=O)C[C@@H](C(=O)N[C@@H](CC(N)=O)C(=O)N[C@@H](CC(N)=O)C(N)=O)NC(=O)C(C)(C)NC(=O)[C@H](Cc3cccc4ccccc34)NC2=O)cc1 [compound 20] (Ac-[dK]NTWQVY(Me)[1Nal][Aib]DNN-NH2; lactam 1-10)
12 nM,1960 nM,COc1ccc(C[C@@H]2NC(=O)[C@H](CCCNC(=N)N)NC(=O)[C@H](CCC(N)=O)NC(=O)[C@H](Cc3cn(C)c4ccccc34)NC(=O)[C@H]([C@@H](C)O)NC(=O)[C@H](CC(N)=O)NC(=O)[C@H](NC(C)=O)CCCCNC(=O)C[C@@H](C(=O)N[C@@H](CC(N)=O)C(=O)N[C@@H](CC(N)=O)C(N)=O)NC(=O)[C@](C)(CC(C)C)NC(=O)[C@H](Cc3cccc4ccccc34)NC2=O)cc1 [compound 23] (Ac-[dK]NT[Trp(1-Me)]QRY(Me)[1Nal][αMeL]DNN-NH2; lactam 1-10)
